Here are results for 14 compounds from patent publication US7232833B2, “4-substituted quinoline derivatives, method and intermediates for their preparation and pharmaceutical compositions containing them” (Novexel, priority 2003, dated 2007).

Values after ≈ are worked out from the molar mass of the structure shown. Where a name gives a salt, the structure may show the parent alone.

Data set [1] relates to M. catarrhalis IPA151 sensitive. Put plainly: MIC by dilutions in agar medium (NCCLS). It counts as cell-based. The note with it: Moraxella catarrhalis, IPA151SENSITIVE; Gram-negative, at 48 hours, agar dilution. From the text: (§1) a) Activity in vitro The method of dilutions in agar medium in agreement with the NCCLS recommendations is used for the determination of the minimum inhibitory concentrations (MIC) expressed in μg/ml.
A general note: Agar dilution tests growth on a series of plates holding different concentrations.

For data set [2], the system named is E. faecalis ATCC29212. Put plainly: MIC by dilutions in agar medium (NCCLS). It counts as cell-based. To be noted: Enterococcus faecalis, Gram-positive, at 24 hours, agar dilution.
Text: as §1

Data set [3] deals with S. aureus AS 5155 methicillin resistant. As to the kind of experiment: MIC by dilutions in agar medium (NCCLS). The format is cell-based. To be noted: Staphylococcus aureus; Gram-positive, at 24 hours, agar dilution.
Text: as §1

Data set [4] concerns S. pneumoniae 6254-01 MLSB resistant. As to the kind of experiment: MIC by dilutions in agar medium (NCCLS). It counts as cell-based. To be noted: Streptococcus pneumoniae; Gram-positive, at 24 hours, agar dilution.
Text: as §1

Data set [5] deals with S. aureus IP8203 sensitive. As to the kind of experiment: MIC by dilutions in agar medium (NCCLS). The format is cell-based. The note with it: Staphylococcus aureus; Gram-positive, at 24 hours, agar dilution.
Text: as §1

Broadly, the melting point is the temperature of the solid-liquid transition. A word on the MIC: it is the smallest concentration in the dilution series that meets the test's criterion for growth inhibition. The low end stands for a more susceptible organism, the high end for a less susceptible organism.

With `COc1ccc2ncc(Cl)c(CCCC3(C(=O)O)CCN(C/C=C/c4cc(F)ccc4F)C3)c2c1` (racemic) (as salt: sodium) [Example 15, (±)-3-[3-(3-chloro-6-methoxyquinolin-4-yl)propyl]-1-[(2E)-3-(2,5-difluorophenyl)-2-propenyl]-3-pyrrolidinecarboxylic acid], the melting point turned out to be 77 °C.

`COc1ccc2ncc(F)c(CCCC3(C(=O)O)CCN(C/C=C/c4cc(F)ccc4F)C3)c2c1` (racemic) [Example 1, (±)-1-[(2E)-3-(2,5-difluorophenyl)-2-propenyl]-3-[3-(3-fluoro-6-methoxyquinolin-4-yl)propyl]-3-pyrrolidinecarboxylic acid] had a melting point of 77 °C. The minimal inhibitory concentration (MIC) in data set [1] lay in the range of 0.12 to 2 µg/mL (≈ 0.248 to 4.13 µM). In data set [2], this compound gave an MIC of 0.25 to 32 µg/mL (≈ 0.516 to 66 µM). The same compound gave an MIC in data set [3] of 0.015 to 4 µg/mL (≈ 0.031 to 8.26 µM). Moreover, the MIC in data set [4] was in the range of 0.015 to 4 µg/mL (≈ 0.031 to 8.26 µM). For the same compound, the MIC in data set [5] lay in the range of 0.015 to 4 µg/mL (≈ 0.031 to 8.26 µM).

For `COC(=O)C1(CCCc2c(F)cnc3ccc(OC)cc23)CCN(C/C=C/c2cc(F)ccc2F)C1` (racemic) [Example 2, Methyl (±)-1-[(2E)-3-(2,5-difluorophenyl)-2-propenyl]-3-[3-(3-fluoro-6-methoxyquinolin-4-yl)propyl]-3-pyrrolidinecarboxylate], the MIC fell in the range of 0.12 to 2 µg/mL (≈ 0.241 to 4.01 µM) in data set [1]; 0.25 to 32 µg/mL (≈ 0.501 to 64.2 µM) in data set [2]; 0.015 to 4 µg/mL (≈ 0.0301 to 8.02 µM) in data set [3]; 0.015 to 4 µg/mL (≈ 0.0301 to 8.02 µM) in data set [4]; 0.015 to 4 µg/mL (≈ 0.0301 to 8.02 µM) in data set [5].

On to `COc1ccc2ncc(F)c(CCCC3(C(=O)O)CCN(C/C=C/c4c(F)cccc4F)C3)c2c1` (single isomer, unassigned) (as salt: hydrochloride) [Example 41, 3-[3-(3-fluoro-6-methoxyquinolin-4-yl)propyl]-1-[(2E)-3-(2,6-difluorophenyl)-2-propenyl]-3-pyrrolidinecarboxylic acid], for which the melting point is 96 °C.

`COc1ccc2ncc(F)c(CCCC3(C(=O)O)CCN(C/C=C/c4cc(F)ccc4F)C3)c2c1` (single isomer, unassigned) [Example 3, 1-[(2E)-3-(2,5-difluorophenyl)-2-propenyl]-3-[3-(3-fluoro-6-methoxyquinolin-4-yl)propyl]-3-pyrrolidinecarboxylic acid] registered a melting point of 76 to 80 °C. The MIC in data set [1] lay within 0.12 to 2 µg/mL (≈ 0.248 to 4.13 µM). The compound further had an MIC in data set [2] of 0.25 to 32 µg/mL (≈ 0.516 to 66 µM). For the same compound, the MIC in data set [3] lay in the range of 0.015 to 4 µg/mL (≈ 0.031 to 8.26 µM). Besides, the MIC in data set [4] fell in the range of 0.015 to 4 µg/mL (≈ 0.031 to 8.26 µM). This compound also gave an MIC in data set [5] of 0.015 to 4 µg/mL (≈ 0.031 to 8.26 µM).

For `COc1ccc2ncc(F)c(CCCC3(C(=O)O)CCN(C/C=C/c4cc(F)ccc4F)C3)c2c1` (single isomer, unassigned) [Example 4, 1-[(2E)-3-(2,5-difluorophenyl)-2-propenyl]-3-[3-(3-fluoro-6-methoxyquinolin-4-yl)propyl]-3-pyrrolidinecarboxylic acid], the melting point was in the range of 80 to 84 °C.

`COc1ccc2ncc(F)c(CCCC3(C(=O)O)CCN(CCSc4cccs4)C3)c2c1` (single isomer, unassigned) [Example 17, 3-[3-(3-fluoro-6-methoxyquinolin-4-yl)propyl]-1-[2-(2-thienylthio)ethyl]-3-pyrrolidinecarboxylic acid] displayed a melting point of 160 °C.

`COc1ccc2ncc(F)c(CCCC3(C(=O)O)CCN(CCSc4cccs4)C3)c2c1` (single isomer, unassigned) [Example 18, 3-[3-(3-fluoro-6-methoxyquinolin-4-yl)propyl]-1-[2-(2-thienylthio)ethyl]-3-pyrrolidinecarboxylic acid] gave a melting point of 172 °C.

`COc1ccc2ncc(F)c(CCCC3(C(=O)O)CCN(CCOc4cc(F)ccc4F)C3)c2c1` (single isomer, unassigned) [Example 30, 1-[2-(2,5-difluorophenoxy)ethyl]-3-[3-(3-fluoro-6-methoxyquinolin-4-yl)propyl]-3-pyrrolidinecarboxylic acid] came in with a melting point of 157 °C.

As for `COc1ccc2ncc(F)c(CCCC3(C(=O)O)CCN(C/C=C/c4cc(Cl)ccc4Cl)C3)c2c1` (single isomer, unassigned) [Example 36, 1-[(2E)-3-(2,5-dichlorophenyl)-2-propenyl]-3-[3-(3-fluoro-6-methoxyquinolin-4-yl)propyl]-3-pyrrolidinecarboxylic acid], the melting point worked out at 102 °C.

`COc1ccc2ncc(F)c(CCCC3(C(=O)O)CCN(C/C=C/c4cc(F)c(F)c(F)c4)C3)c2c1` (single isomer, unassigned) [Example 49, 3-[3-(3-fluoro-6-methoxyquinolin-4-yl)propyl]-1-[(2E)-3-(3,4,5-trifluorophenyl)-2-propenyl]-3-pyrrolidinecarboxylic acid] displayed a melting point of 110 °C.

As for `COc1ccc2ncc(F)c(CCCC3(C(=O)O)CCN(C/C=C/c4cc(F)c(F)c(F)c4)C3)c2c1` (single isomer, unassigned) [Example 50, 3-[3-(3-fluoro-6-methoxyquinolin-4-yl)propyl]-1-[(2E)-3-(3,4,5-trifluorophenyl)-2-propenyl]-3-pyrrolidinecarboxylic acid], the melting point was determined as 148 °C.

The compound `COc1ccc2ncc(F)c(CCCC3(C(=O)O)CCN(CCSc4c(F)cccc4F)C3)c2c1` (single isomer, unassigned) [Example 57, 1-[2-[(2,6-difluorophenyl)thio]ethyl]-3-[3-(3-fluoro-6-methoxyquinolin-4-yl)propyl]-3-pyrrolidinecarboxylic acid] registered a melting point of 106 °C.

`COc1ccc2ncc(F)c(CCCC3(C(=O)O)CN(C/C=C/c4cc(F)ccc4F)C3)c2c1` [Example 11, 1-[(2E)-3-(2,5-difluorophenyl)-2-propenyl]-3-[3-(3-fluoro-6-methoxyquinolin-4-yl)propyl]-3-azetidinecarboxylic acid] registered a melting point of 211 °C.
